Test results as given in publication PMC8899516, “Structure-Activity Relationship Studies of 4-((4-(2-fluorophenyl)piperazin-1-yl)methyl)-6-imino-N-(naphthalen-2-yl)-1,3,5-triazin-2-amine (FPMINT) Analogues as Inhibitors of Human Equilibrative Nucleoside Transporters” (Frontiers in Pharmacology, 2022).

Experiments:
[1] = molecular target: T1, ENT1 (Homo sapiens, UniProt Q99808); experiment: Kinetic study of [3H]uridine uptake in PK15NTD/ENT1 cells; type: cell-based
T1 construct: expressed in transfected cells
T1 sequence (Q99808 1-456): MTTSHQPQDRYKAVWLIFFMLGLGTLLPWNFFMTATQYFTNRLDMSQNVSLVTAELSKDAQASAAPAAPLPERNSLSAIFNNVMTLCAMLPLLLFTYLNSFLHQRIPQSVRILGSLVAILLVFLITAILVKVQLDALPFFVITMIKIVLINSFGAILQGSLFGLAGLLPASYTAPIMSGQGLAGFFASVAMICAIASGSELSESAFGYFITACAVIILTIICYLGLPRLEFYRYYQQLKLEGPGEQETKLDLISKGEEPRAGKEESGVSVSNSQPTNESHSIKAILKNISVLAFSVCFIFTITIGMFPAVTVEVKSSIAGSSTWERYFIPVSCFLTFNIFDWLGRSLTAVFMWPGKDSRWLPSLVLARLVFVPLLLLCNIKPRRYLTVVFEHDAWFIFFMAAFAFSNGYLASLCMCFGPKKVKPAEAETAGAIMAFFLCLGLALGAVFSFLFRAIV
Experimental: Nucleoside transporter-deficient porcine kidney fibroblast cells (PK15NTD) stably transfected with cloned human ENT1 or ENT2 ([Ward et al., 2000]) were used as the in vitro models. The cells were cultured in Dulbecco’s Modified Eagle’s Medium (DMEM) supplemented with 10% (v/v) foetal bovine serum, 0.5 mg/ml geneticin, 100 units/ml penicillin, 100 μg/ml streptomycin and 0.25 μg/ml of amphotericin B at 37°C in 5% CO2/95% air.
Confluent monolayers of PK15NTD/ENT1 and PK15NTD/ENT2 cells in 24-well plates were washed thrice with HEPES-buffered Ringer’s solution containing (mM): 135 NaCl, 10 glucose, 5 KCl, 5 HEPES, 3.33 NaH2PO4, 1.0 CaCl2, 1.0 MgCl2, 0.83 Na2HPO4; pH 7.4. The cells were incubated with different concentrations of FPMINT analogues (from 10 nM to 100 μM) containing [^3H]uridine (2 μCi/ml, 1 μM) for 1 min. Passive uridine uptake was determined by incubating the cells in HEPES-buffered Ringer’s solution containing [^3H]uridine in the presence of 0.5 mM NBMPR. The cells were rapidly washed five times with ice-cold phosphate-buffered saline (PBS). After air-drying, the cells were solubilised by overnight incubation in 500 μl of 5% Triton-X100. Next, 300 μl of the cell lysates were mixed with 2 ml of scintillation liquid. The radioactivity of each sample was quantified by a scintillation counter. The protein content in each well was determined spectrophotometrically using a commercial bicinchoninic acid assay (Pierce Biochemicals, Rockford, IL). Uptake values were expressed as picomoles of [^3H]uridine per milligram of cellular protein per minute.
All data were analysed by GraphPad Prism software (San Diego, CA, United States). Data are expressed as mean ± standard error (SE) of three experiments performed in triplicate. The IC50 values were determined from the dose-response curves fitted with a logistic function. For the kinetic study of [^3H]uridine uptake, apparent K m and V max values were determined from the Michaelis-Menten equation, and K i was determined from the X-intercept of linear regression. Analysis of variance and Student’s t-test were performed for multiple and paired variables, respectively. p values of <0.05 were considered to be statistically significant.
Compound 3c was selected for further investigation. The kinetic study of [^3H]uridine transport was performed by measuring the concentration-dependent uptake of [^3H]uridine. This study could provide clue about the mode of action of compound 3c. The uptake of [^3H]uridine by ENT1 and ENT2 was saturable and conformed to Michaelis-Menten kinetics. Compound 3c decreased the V max of ENT1 but had no effect on K m . […] The slopes of the linear 1/V versus 1/[S] plots increased with the concentration of compound 3c (Figure 4B).
FIGURE 4 Competitive inhibition of ENT1 and ENT2 by compound 3c. Kinetic study of [^3H]uridine uptake (0.1 μM–1 mM) was measured in (A) PK15NTD/ENT1 and (D) PK15NTD/ENT2 cells in the presence of various concentrations of compound 3c (0, 0.01, 0.1, 1 and 10 µM) (B,E) 1/V versus 1/[S] plots of each curve in (A) and (D), respectively (C,F) The plot of slopes of each line in (B) and (E), respectively, versus the concentration of compound 3c. Data are presented as mean ± SE of three experiments.

[2] = tested on: PK15NTD/ENT2 cells; experiment: Cell viability, MTT assay; type: cell-based, porcine; settings: 50 µM, 24 or 48 h
Experimental: (§1) PK15NTD/ENT1 and PK15NTD/ENT2 cells were seeded onto 96-well plates until they reached 80–90% confluent. The cells were then treated with different concentrations of compound 3c or an equivalent volume of a vehicle (0.5% dimethyl sulfoxide (DMSO), as a control) in a serum-free medium for another 24 or 48 h. For measuring cell membrane integrity, the lactate dehydrogenase (LDH) released into the culture medium was measured with a detection kit (Abcam, Cambridge, UK) according to the manufacturer’s instructions. The absorbance at 490 nm was measured with a microplate absorbance reader. For measuring cell viability, 0.5 mg/ml methylthiazolyldiphenyl-tetrazolium bromide (MTT) was added to each well. […] The absorbance was measured at 560 nm, with the absorbance at 655 nm serving as the background.
(§2) FIGURE 5 Effects of compound 3c on cytotoxicity and protein expressions of ENT1 and ENT2. Cytotoxicity of compound 3c was measured after 24 h or 48 h treatment of PK15NTD/ENT1 and PK15NTD/ENT2 cells with various concentrations of compound 3c (0.5, 5 and 50 μM) or a vehicle (0.5% DMSO, as a control) (A) The cell viability and (B) cell membrane integrity were determined by the MTT assay and LDH release, respectively (C) PK15NTD/ENT1 and (D) PK15NTD/ENT2 cells were incubated with 50 μM of compound 3c or a vehicle (0.5% DMSO, as a control) for 24 or 48 h. […]

[3] = tested on: PK15NTD/ENT1 cells; experiment: Cell viability, MTT assay; type: cell-based, porcine; settings: 50 µM, 24 or 48 h
Experimental: as §1, §2

In the case of Cc1cccc(Nc2nc(N)nc(CN3CCN(c4ccc(F)cc4)CC3)n2)c1 [Compound 3c], the “apparent Vmax of ENT1” value ([1]; 0.01 µM compound 3c) is reported as 2083 ± 36.80 pmol/mg protein/min, the “apparent Vmax of ENT1” value ([1]; 0.1 µM compound 3c) is reported as 1867 ± 27.63 pmol/mg protein/min and the “apparent Vmax of ENT1” value ([1]; 1 µM compound 3c) is reported as 1377 ± 37.81 pmol/mg protein/min. For the same compound, the “apparent Vmax of ENT1” value ([1]; 10 µM compound 3c) was 732.9 ± 12.02 pmol/mg protein/min, the “mode of inhibition of ENT1-mediated uridine transport” value ([1]; decreased Vmax, apparent Km unchanged) was “non-competitive inhibitor” and the Ki ([1]; x-intercept of slopes versus concentration plot) was 2.79 µM. For the same compound, the cell viability [2] was “No significant changes” and the cell viability [3] was “No significant changes”.
